Reference: article PMC6009888, “Design, synthesis, and pharmacological evaluation of 2-amino-5-nitrothiazole derived semicarbazones as dual inhibitors of monoamine oxidase and cholinesterase: effect of the size of aryl binding site” (Journal of Enzyme Inhibition and Medicinal Chemistry, 2017)
Entries after “also recorded” stand apart in the source; their conditions may differ. Read-outs that look alike come from different tables or passages of the source.

Key:
rat brain AChE = molecular target: T1, rat brain AChE (Rattus norvegicus, UniProt P37136); test: biochemical; assay type: biochemical; conditions: for IC50: rat brain AChE, ACTI substrate, mean ± SEM, triplicate
T1 construct: the resulting clear supernatants obtained were used as enzyme sources; from tissue; host or cells: rat brain cortex homogenate, 10,000 g supernatant
Method in brief: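 Rat brain cortex homogenate (10,000 g supernatant) served as the AChE source. Ellman-type assay in 20 mM sodium phosphate pH 7.4 with DTNB (10 mM stock), started with acetylthiocholine iodide (0.8 mM stock) and run 15 min at 25 °C. IC50 from triplicates, mean ± SEM.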

MAO-B = molecular target: T2, MAO-B (Rattus norvegicus, UniProt P19643); test: biochemical; conditions: for SI (selectivity index for MAO-B): ratio of experimental IC50(MAO-A)/IC50(MAO-B)
T2 construct: employing crude rat brain mitochondrial suspension; from tissue; host or cells: brain mitochondria of adult Wistar rats
T2 sequence (P19643 1-520): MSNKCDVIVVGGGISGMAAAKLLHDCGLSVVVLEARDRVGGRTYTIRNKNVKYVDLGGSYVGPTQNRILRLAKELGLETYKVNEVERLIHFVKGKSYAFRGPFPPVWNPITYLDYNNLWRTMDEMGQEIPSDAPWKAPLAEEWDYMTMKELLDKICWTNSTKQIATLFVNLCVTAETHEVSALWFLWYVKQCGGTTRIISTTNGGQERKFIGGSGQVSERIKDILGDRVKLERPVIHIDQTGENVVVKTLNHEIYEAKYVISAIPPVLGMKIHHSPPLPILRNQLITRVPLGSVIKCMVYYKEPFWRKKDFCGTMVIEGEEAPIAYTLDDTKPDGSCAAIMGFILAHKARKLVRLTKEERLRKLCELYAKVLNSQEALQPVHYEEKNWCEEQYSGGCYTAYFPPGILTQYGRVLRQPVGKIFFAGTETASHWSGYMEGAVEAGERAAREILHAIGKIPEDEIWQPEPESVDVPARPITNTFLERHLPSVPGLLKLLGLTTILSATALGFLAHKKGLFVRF
Method in brief: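 Wistar rat brain mitochondria (0.80 mg protein/ml working suspension) were incubated with inhibitor at five concentrations in 50 mM Tris-HCl pH 8.2, 37 °C, 30 min. Substrates were serotonin (added as 4 mM) for MAO-A and benzylamine (added as 0.1 M) for MAO-B. After HCl stop, absorbance was read at 280 nm (5-hydroxyindolacetic acid) or 250 nm (benzaldehyde), in triplicate.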

[1] = read-out: AChE In vitro IC50 (µM) ± SEM
[2] = time-dependent inhibition, pre-incubation 0, 15, 30, 60 min

T1 sequence (P37136 32-614): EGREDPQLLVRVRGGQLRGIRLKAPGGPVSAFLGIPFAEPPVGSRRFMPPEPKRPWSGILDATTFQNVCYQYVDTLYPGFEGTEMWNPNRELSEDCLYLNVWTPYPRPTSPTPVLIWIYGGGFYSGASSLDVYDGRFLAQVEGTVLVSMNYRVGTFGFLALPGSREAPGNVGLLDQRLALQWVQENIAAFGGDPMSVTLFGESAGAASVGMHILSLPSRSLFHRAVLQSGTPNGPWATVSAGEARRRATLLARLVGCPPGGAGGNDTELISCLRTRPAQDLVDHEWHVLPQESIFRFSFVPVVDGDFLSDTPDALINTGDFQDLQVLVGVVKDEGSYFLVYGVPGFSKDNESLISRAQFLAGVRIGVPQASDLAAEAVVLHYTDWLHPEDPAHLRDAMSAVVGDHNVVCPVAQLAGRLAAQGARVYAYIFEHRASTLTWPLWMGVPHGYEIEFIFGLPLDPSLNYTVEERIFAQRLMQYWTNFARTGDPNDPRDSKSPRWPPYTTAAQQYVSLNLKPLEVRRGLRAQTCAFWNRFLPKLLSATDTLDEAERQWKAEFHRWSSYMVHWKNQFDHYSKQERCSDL

Compound | AChE: fold decrease in activity versus bromo substitution (compound 4) (rat brain AChE; halogen at carbimino terminal phenyl ring) | IC50 (rat brain AChE; [1]) | IC50 (MAO-B) | SI (selectivity index for MAO-B) (MAO-B) | Ki (MAO-B) | Mode of MAO-B inhibition (MAO-B; Lineweaver–Burk plots, benzylamine) | Reversibility of MAO-B inhibition (MAO-B; [2]) | Mode of AChE inhibition (rat brain AChE; Lineweaver–Burk plots, ACTI) | Reversibility of AChE inhibition (rat brain AChE; [2]) | IC50 (rat brain AChE; AChE In vitro IC50 (µM) ± SEM) | AChE: fold increase in activity relative to compound 17 (rat brain AChE; diaryl analogues) | MAO-B: fold increase in activity relative to compound 17 (MAO-B; diaryl analogues)
CC(=NNC(=O)Nc1ncc([N+](=O)[O-])s1)c1ccc(Cl)cc1 [Compound 5, 1-(1-(4-Chlorophenyl)ethylidene)-4-(5-nitrothiazol-2-yl)semicarbazide] | > 1000 fold | 356 ± 4.73 µM | 601 ± 15 nM | 7921.79 |  |  |  |  |  |  |  | 
CC(=NNC(=O)Nc1ncc([N+](=O)[O-])s1)c1ccc(Br)cc1 [Compound 4, 1-(1-(4-Bromophenyl)ethylidene)-4-(5-nitrothiazol-2-yl)semicarbazide] |  | 0.34 ± 0.007 µM | 212 ± 4 nM | 331.08 | 11700 ± 580 nM | competitive; also recorded: competitively | reversible |  |  |  |  | 
O=C(NN=C1C(=O)Nc2ccc(Br)cc21)Nc1ncc([N+](=O)[O-])s1 [Compound 21, 1-(5-Bromo-2-oxoindolin-3-ylidene)-4–(5-nitrothiazol-2-yl)semicarbazide] |  | 0.264 µM | 734 ± 6 nM | 77.94 |  |  |  | mixed-type | reversible |  |  | 
O=C(NN=C(c1ccc(Cl)cc1)c1ccc(Cl)cc1)Nc1ncc([N+](=O)[O-])s1 [Compound 19, 1-(Bis(4-chlorophenyl)methylene)-4-(5-nitrothiazol-2-yl)semicarbazide] |  |  | 1480 ± 63 nM | 34360.43 |  |  |  |  |  | 1.45 ± 0.047 µM | ~7.95 fold | ~19.32 fold
